Biological target: Genome polyprotein (Hepatitis C virus genotype 1a (isolate H77), UniProt P27958)
Assay: Continuous Spectrophotometric Assay
Procedure: Proteolytic cleavage of the ester linkage between the Nva (L-norvaline) and the chromophore (PAP) was monitored for change in absorbance at 370 nm. Initial velocities were determined using linear regression and kinetic constants were obtained by fitting the data to the Michaelis-Menten equation.

Genome polyprotein, sequence (P27958 1027-1657 limits assumed): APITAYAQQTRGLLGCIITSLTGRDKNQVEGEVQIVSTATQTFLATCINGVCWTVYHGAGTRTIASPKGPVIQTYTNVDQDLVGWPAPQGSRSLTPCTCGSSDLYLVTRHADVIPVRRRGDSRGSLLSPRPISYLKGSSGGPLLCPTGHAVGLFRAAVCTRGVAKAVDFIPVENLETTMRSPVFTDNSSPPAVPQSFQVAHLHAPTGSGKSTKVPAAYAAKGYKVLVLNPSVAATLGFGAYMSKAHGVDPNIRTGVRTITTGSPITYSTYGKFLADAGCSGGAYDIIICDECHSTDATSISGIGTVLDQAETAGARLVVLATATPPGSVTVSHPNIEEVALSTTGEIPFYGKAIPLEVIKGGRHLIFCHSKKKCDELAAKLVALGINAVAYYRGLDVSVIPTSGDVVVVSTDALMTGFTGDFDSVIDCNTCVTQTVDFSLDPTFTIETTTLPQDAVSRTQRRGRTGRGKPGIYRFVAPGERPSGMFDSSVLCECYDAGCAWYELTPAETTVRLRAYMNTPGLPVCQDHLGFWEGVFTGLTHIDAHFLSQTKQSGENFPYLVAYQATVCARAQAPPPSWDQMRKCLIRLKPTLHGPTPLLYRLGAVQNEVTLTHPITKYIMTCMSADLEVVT

## C=CCCCC[C@H](NC(=O)[C@@H]1[C@@H]2[C@H](CN1C(=O)[C@H](CCCCC=C)NC(=O)OC(C)(C)C)C2(C)C)C(=O)C(N)=O [tert-butyl N-[(2S)-1-[(1R,2S,5S)-2-{[(2S)-1-carbamoyl-1-oxooct-7-en-2-yl]carbamoyl}-6,6-dimethyl-3-azabicyclo[3.1.0]hexan-3-yl]-1-oxooct-7-en-2-yl]carbamate]
pH 6.5, 30 °C
  Ki: 250 nM

## CCNC(=O)C(=O)[C@@H]1CCCCCCCCC[C@H](NC(=O)N[C@H](CN(C)S(=O)(=O)c2cccs2)C(C)(C)C)C(=O)N2C[C@H]3[C@@H]([C@H]2C(=O)N1)C3(C)C [2-[(3S,13S,16S,17R,19S)-3-({[(2S)-3,3-dimethyl-1-[methyl(thiophene-2-)sulfonamido]butan-2-yl]carbamoyl}amino)-18,18-dimethyl-2,15-dioxo-1,14-diazatricyclo[14.4.0.0^{17,19}]icosan-13-yl]-N-ethyl-2-oxoacetamide]
pH 6.5, 30 °C
  Ki: 10 nM

## CC(C)(C)OC(=O)N[C@H]1CCCCCCCCCC[C@@H](C(=O)C(=O)NCC(=O)NCc2ccccc2)NC(=O)[C@@H]2[C@@H]3[C@H](CN2C1=O)C3(C)C [tert-butyl N-[(3S,14S,17S,18R,20S)-14-({[(benzylcarbamoyl)methyl]carbamoyl}carbonyl)-19,19-dimethyl-2,16-dioxo-1,15-diazatricyclo[15.4.0.0^{18,20}]henicosan-3-yl]carbamate]
pH 6.5, 30 °C
  Ki: 89 nM

## CC(C)(C)OC(=O)N[C@H]1CCCCCCCCCC[C@@H](C(=O)C(N)=O)NC(=O)[C@@H]2[C@@H]3[C@H](CN2C1=O)C3(C)C [tert-butyl N-[(3S,14S,17S,18R,20S)-14-(carbamoylcarbonyl)-19,19-dimethyl-2,16-dioxo-1,15-diazatricyclo[15.4.0.0^{18,20}]henicosan-3-yl]carbamate]
pH 6.5, 30 °C
  Ki: 59 nM

## C=CCNC(=O)C(=O)[C@@H]1CCCCCCCCC[C@H](NC(=O)N[C@H](CN2C(=O)C3CCC(C3)C2=O)C(C)(C)C)C(=O)N2C[C@H]3[C@@H]([C@H]2C(=O)N1)C3(C)C [2-[(3S,13S,16S,17R,19S)-3-({[(2S)-1-{2,4-dioxo-3-azabicyclo[3.2.1]octan-3-yl}-3,3-dimethylbutan-2-yl]carbamoyl}amino)-18,18-dimethyl-2,15-dioxo-1,14-diazatricyclo[14.4.0.0^{17,19}]icosan-13-yl]-2-oxo-N-(prop-2-en-1-yl)acetamide]
  Ki: 3 nM

## C=CCNC(=O)C(=O)[C@@H]1CCCCCCCCC[C@H](NC(=O)N[C@H](CN(C)S(=O)(=O)N(C)C)C(C)(C)C)C(=O)N2C[C@H]3[C@@H]([C@H]2C(=O)N1)C3(C)C [2-[(3S,13S,16S,17R,19S)-3-({[(2S)-1-[(dimethylsulfamoyl)(methyl)amino]-3,3-dimethylbutan-2-yl]carbamoyl}amino)-18,18-dimethyl-2,15-dioxo-1,14-diazatricyclo[14.4.0.0^{17,19}]icosan-13-yl]-2-oxo-N-(prop-2-en-1-yl)acetamide]
  Ki: 13 nM

## CC(C)(C)OC(=O)[C@@H](NC(=O)N[C@H]1CCCCCCCCCC[C@@H](C(=O)C(N)=O)NC(=O)[C@@H]2[C@@H]3[C@H](CN2C1=O)C3(C)C)C(C)(C)C [tert-butyl (2S)-2-({[(3S,14S,17S,18R,20S)-14-(carbamoylcarbonyl)-19,19-dimethyl-2,16-dioxo-1,15-diazatricyclo[15.4.0.0^{18,20}]henicosan-3-yl]carbamoyl}amino)-3,3-dimethylbutanoate]
pH 6.5, 30 °C
  Ki: 37 nM

## CC(C)(C)NC(=O)C(=O)[C@@H]1CCCCCCCCCC[C@H](NC(=O)OC(C)(C)C)C(=O)N2C[C@H]3[C@@H]([C@H]2C(=O)N1)C3(C)C [tert-butyl N-[(3S,14S,17S,18R,20S)-14-[(tert-butylcarbamoyl)carbonyl]-19,19-dimethyl-2,16-dioxo-1,15-diazatricyclo[15.4.0.0^{18,20}]henicosan-3-yl]carbamate]
pH 6.5, 30 °C
  Ki: 6000 nM

## CCCNC(=O)C(=O)[C@@H]1CCCCCCCCC[C@H](NC(=O)N[C@H](CN(C)S(=O)(=O)c2cccs2)C(C)(C)C)C(=O)N2C[C@H]3[C@@H]([C@H]2C(=O)N1)C3(C)C [2-[(3S,13S,16S,17R,19S)-3-({[(2S)-3,3-dimethyl-1-[methyl(thiophene-2-)sulfonamido]butan-2-yl]carbamoyl}amino)-18,18-dimethyl-2,15-dioxo-1,14-diazatricyclo[14.4.0.0^{17,19}]icosan-13-yl]-2-oxo-N-propylacetamide]
pH 6.5, 30 °C
  Ki: 14 nM

## CN(C[C@@H](NC(=O)N[C@H]1CCCCCCCCC[C@@H](C(=O)C(N)=O)NC(=O)[C@@H]2[C@@H]3[C@H](CN2C1=O)C3(C)C)C(C)(C)C)S(C)(=O)=O [2-[(3S,13S,16S,17R,19S)-3-({[(2S)-1-[methane(methyl)sulfonamido]-3,3-dimethylbutan-2-yl]carbamoyl}amino)-18,18-dimethyl-2,15-dioxo-1,14-diazatricyclo[14.4.0.0^{17,19}]icosan-13-yl]-2-oxoacetamide]
pH 6.5, 30 °C
  Ki: 3 nM
